Measurements taken from patent publication EP4700096A1, “INK COMPOSITION FOR INK-JET PRINTING” (Sakata INX Corporation, priority 2023, dated 2024).

Test: SP value (solubility parameter) calculated by Formula 1
Assay type: physicochemical
Settings: 25°C (298 K), calculated by Formula 1 from latent heat of vaporization, molecular weight, density
Description: The SP value refers to the solubility parameter, and the SP value of the water-soluble organic solvent (B) can be determined by formula 1 below. SP value(unit:((cal/cm^3))^(1/2)) = ({(ΔH−RT)/(M/D)})^(1/2) [formula]

Compound | SP value (25°C)
CC(O)COC(C)COC(C)CO (stereo not drawn) [Tripropylene glycol] | 9.0 (cal/cm^3)^1/2
OCC(O)CO [glycerin] | 14.9 (cal/cm^3)^1/2
CC(O)CO (stereo not drawn) [1,2-propanediol] | 12.6 (cal/cm^3)^1/2
